# US20070244080A1, “Method for Treatment of Inflammatory Disorders Using Triptolide Compounds” (priority 2004, published 2007)
# Key:
# [1] = tested on: IL-2 production in Jurkat cells; conditions: cited from earlier work
# [2] = tested on: human T cell lymphoma (Jurkat) cells; conditions: relative to native triptolide; cited from earlier work
# [3] = tested on: IL-2; test: Suppression of cytokine production, PMA/ionomycin-induced Jurkat cells, ELISA; format: cell-based, human; conditions: 8 hr
# Method: (§1) Triptolide suppresses in vitro production of proinflammatory cytokines such as IFN-γ, TNF-α, IL-1β and IL-6, as shown in Table 1. To obtain the data, Jurkat cells were stimulated for 8 hr by PMA and ionomycin. Human peripheral blood mononuclear cells (PBMC) from a single donor were incubated for 24 hr with PHA. At the end of the culture period, each supernatant was harvested, and the cytokine content was assayed by ELISA.
# [4] = tested on: IFN-γ; test: Suppression of cytokine production, PHA-induced PBMC, ELISA; format: cell-based, human; conditions: 24 hr, single donor
# Method: as §1
# [5] = tested on: IL-1β; test: as above; format: cell-based, human; conditions: 24 hr, single donor
# Method: as §1
# [6] = tested on: IL-2; test: as above; format: cell-based, human; conditions: 24 hr, single donor
# Method: as §1
# [7] = tested on: IL-6; test: as above; format: cell-based, human; conditions: 24 hr, single donor
# Method: as §1
# [8] = tested on: TNF-α; test: as above; format: cell-based, human; conditions: 24 hr, single donor
# Method: as §1
# [9] = tested on: IL-8; conditions: bronchial epithelial cells; cited from earlier work
# [10] = tested on: cytokine genes in activated Jurkat cells; conditions: cited from earlier work
# [11] = Conversion of triptolide prodrug to triptolide in blood serum (TLC); format: in vitro ADME; conditions: 37° C.
# Method: A solution of triptolide succinate in DMSO (25 mg/ml, 0.1 ml) was mixed with 0.5 ml of rat serum. The mixture was incubated at 37° C. Aliquots of the mixture were taken at 1, 3, 5, 15, 45 minutes and 18 hours and analyzed by thin layer chromatography (TLC). The TLC plates were developed in 1:5 CH2Cl2/Et2O. After development, the plates were treated with iodine vapor and examined under a UV lamp. Triptolide and triptolide succinate were used as reference compounds (Rf=0.60 and 0.45, respectively). […] After 15 minutes, the triptolide succinate spot had disappeared (Rf=0.45), and a new spot corresponding to triptolide had appeared (Rf=0.60).
# [12] = in vivo; cited from earlier work
# [13] = Phase I clinical trial, tolerability; format: in vivo, human; conditions: 0.675 μg/m^2 by i.v. infusion, weekly intervals
# Method: In accordance with the invention, administration of a triptolide compound is expected to inhibit cytokine production, particularly TGF-β production, in a patient suffering from obliterative airway disease, renal fibrosis, diabetic nephropathy, or liver fibrosis, thereby reducing the symptoms of the disease. A range of doses is practical for this treatment. […] This dose calculates to about 20 μg/kg. Treatment in this clinical study is administered at weekly intervals.
molecule,measurement,setting,value
"CC(C)[C@]12O[C@H]1[C@@H]1O[C@]13[C@]1(O[C@H]1C[C@H]1C4=C(CC[C@@]13C)C(=O)OC4)[C@H]2F [PG763, 14-deoxy-14α-fluoro triptolide]",IL-2 inhibition activity compared with native triptolide,[1]; relative to native triptolide,nearly equivalent
same,Cytotoxicity compared with native triptolide,[2],nearly equivalent
"CC(C)[C@]12O[C@H]1[C@@H]1O[C@]13[C@]1(O[C@H]1C[C@H]1c4c(C(=O)c5ccccc5)oc(OC(=O)c5ccccc5)c4CC[C@@]13C)[C@@H]2O [PG796, 18-deoxo-19-dehydro-18-benzoyloxy-19-benzoyl triptolide]",IL-2 inhibition activity compared with triptolide 14-succinate,[1]; relative to the prodrug triptolide 14-succinate,higher level of activity
triptolide,"IC50, suppression of IL-2 production",[3],1.3 ng/mL
same,"IC50, suppression of IFN-γ production",[4],0.52 ng/mL
same,"IC50, suppression of IL-1β production",[5],0.45 ng/mL
same,"IC50, suppression of IL-2 production",[6],0.38 ng/mL
same,"IC50, suppression of IL-6 production",[7],1.5 ng/mL
same,"IC50, suppression of TNF-α production",[8],0.35 ng/mL
same,IL-8 mRNA and protein expression,[9],suppresses IL-8 expression
same,"Expression of cytokine genes (IL-2, IL-3, IL-6, IL-8, IL-13, TNF-α, TGF-β, MIP-1α, MIP-1β, GM-CSF, RANTES)",[10],inhibits the expression of several cytokine genes
triptolide 14-succinate [PG490-88],Species detected by TLC after incubation in rat serum,[11]; after 3 minutes,only triptolide succinate was detected
same,Species detected by TLC after incubation in rat serum,[11]; after 15 minutes,disappeared
same,Suppression of IL-2 production,[1]; after incubation in plasma,in vitro activity in suppression of IL-2 production
same,Efficacy in animal models of immunosuppression,[12],efficacy in several animal models of immunosuppression
triptolide succinate sodium salt [PG490-88Na],Tolerability in phase I clinical trial,[13],well tolerated with no drug-related toxicity
